The values that follow come from ChEMBL document CHEMBL4043216, “Design and synthesis of benzoacridines as estrogenic and anti-estrogenic agents” (Bioorg Med Chem, 2017).

Structures can show the parent of a compound that is named as a salt. Calls of active or inactive are those of the source. The rule behind the calls is not given here.

One data set in a line: in vitro. Conditions: human.
Data set [1] has as its target T1, Estrogen receptor beta (Homo sapiens, UniProt Q92731). In words: Antagonist activity at full length ERbeta (unknown origin) expressed in human HeLa cells incubated for 24 hrs by ERE-driven luciferase reporter gene assay.
Data set [2] addresses T2, Estrogen receptor (Homo sapiens, UniProt P03372).
T2 sequence (P03372 whole entry): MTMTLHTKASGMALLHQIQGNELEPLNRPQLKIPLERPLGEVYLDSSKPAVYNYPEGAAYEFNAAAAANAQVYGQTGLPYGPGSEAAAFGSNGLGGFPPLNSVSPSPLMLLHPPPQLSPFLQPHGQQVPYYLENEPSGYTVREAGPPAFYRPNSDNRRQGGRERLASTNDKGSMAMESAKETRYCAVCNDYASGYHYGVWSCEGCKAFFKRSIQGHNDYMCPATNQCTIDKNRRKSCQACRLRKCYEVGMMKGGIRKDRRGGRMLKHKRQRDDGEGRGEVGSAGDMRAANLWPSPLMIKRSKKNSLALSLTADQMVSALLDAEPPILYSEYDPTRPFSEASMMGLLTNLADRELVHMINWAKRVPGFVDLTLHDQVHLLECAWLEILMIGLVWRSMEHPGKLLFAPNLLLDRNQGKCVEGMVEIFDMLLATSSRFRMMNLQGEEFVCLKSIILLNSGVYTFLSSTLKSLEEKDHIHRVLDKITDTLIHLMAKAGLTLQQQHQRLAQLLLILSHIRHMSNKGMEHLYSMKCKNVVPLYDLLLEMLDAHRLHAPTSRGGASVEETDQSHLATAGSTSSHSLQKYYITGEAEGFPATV
Description: Displacement of [3H]E2 from GST-fused ERalpha-LBD (unknown origin) expressed in Escherichia coli BL21 incubated for 1 hr by liquid scintillation counting method

The target of data set [3] is T3, Estrogen receptor (Homo sapiens) (UniProt P03372).
T3 sequence (whole entry): T2 sequence (P03372 whole entry)
In words: Antagonist activity at full length ERalpha (unknown origin) expressed in human HeLa cells up to 10 uM incubated for 24 hrs by ERE-driven luciferase reporter gene assay. It is filed as cell-based.

For data set [4], the target named is T2, Estrogen receptor. The source holds these as a separate data set.
Description: Agonist activity at full length ERalpha (unknown origin) expressed in human HeLa cells incubated for 24 hrs by ERE-driven luciferase reporter gene assay
Data set [5] deals with T4, Estrogen-related receptor gamma (Homo sapiens, UniProt P62508).
T4 sequence (P62508 whole entry): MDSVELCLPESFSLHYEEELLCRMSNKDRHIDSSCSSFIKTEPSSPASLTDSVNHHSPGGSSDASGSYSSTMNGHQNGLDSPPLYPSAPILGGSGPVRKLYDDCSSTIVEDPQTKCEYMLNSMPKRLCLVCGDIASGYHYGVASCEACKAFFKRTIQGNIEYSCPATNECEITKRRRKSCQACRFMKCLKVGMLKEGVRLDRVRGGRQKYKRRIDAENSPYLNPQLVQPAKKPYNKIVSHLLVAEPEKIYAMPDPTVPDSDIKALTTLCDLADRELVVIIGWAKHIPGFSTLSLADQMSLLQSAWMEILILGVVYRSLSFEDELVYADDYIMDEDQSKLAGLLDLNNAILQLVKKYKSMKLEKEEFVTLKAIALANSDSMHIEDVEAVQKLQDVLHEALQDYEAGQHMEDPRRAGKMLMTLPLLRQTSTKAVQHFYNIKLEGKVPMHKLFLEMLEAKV
Description: Binding affinity to human ERRgamma

For data set [6], the target named is T1, Estrogen receptor beta.
Description: (§1) Displacement of [3H]E2 from GST-fused ERbeta-LBD (unknown origin) expressed in Escherichia coli BL21 incubated for 1 hr by liquid scintillation counting method
The test system of another data set is MCF7. In words: cells. It is filed as functional, cell-based. As to conditions: Homo sapiens, MCF7, 144 h.
The target of data set [7] is T1, Estrogen receptor beta. The source holds these as a separate data set.
Description: as §1
Data set [8] deals with T1, Estrogen receptor beta. The experiment in a line: Antagonist activity at full length ERbeta (unknown origin) expressed in human HeLa cells assessed as reduction in 17-beta estradiol-induced response at 10^-5M incubated for 24 hrs by ERE-driven luciferase reporter gene assay relative to untreated control. It is filed as cell-based. (A reporter such as luciferase makes a cellular process visible.)

The target in data set [9] is T2, Estrogen receptor. The source holds these as a separate data set.
Description: Antagonist activity at full length ERalpha (unknown origin) expressed in human HeLa cells incubated for 24 hrs by ERE-driven luciferase reporter gene assay

T1 sequence (Q92731 whole entry): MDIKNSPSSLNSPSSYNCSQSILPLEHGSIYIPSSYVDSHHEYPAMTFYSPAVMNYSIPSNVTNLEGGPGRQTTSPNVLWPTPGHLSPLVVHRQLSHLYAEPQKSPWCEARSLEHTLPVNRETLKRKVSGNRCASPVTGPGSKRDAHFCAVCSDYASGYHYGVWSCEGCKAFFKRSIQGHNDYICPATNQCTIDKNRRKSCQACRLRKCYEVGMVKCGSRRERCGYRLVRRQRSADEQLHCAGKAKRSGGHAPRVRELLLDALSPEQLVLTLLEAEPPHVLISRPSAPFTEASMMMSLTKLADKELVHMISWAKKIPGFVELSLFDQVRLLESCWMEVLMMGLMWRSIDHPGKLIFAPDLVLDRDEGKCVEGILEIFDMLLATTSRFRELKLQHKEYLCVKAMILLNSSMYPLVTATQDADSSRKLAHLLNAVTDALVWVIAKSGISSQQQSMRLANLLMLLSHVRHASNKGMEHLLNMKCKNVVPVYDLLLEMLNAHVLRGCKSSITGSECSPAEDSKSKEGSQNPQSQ
Description for MCF7: Inhibition of 17-beta estradiol-induced cell proliferation in human MCF7 cells incubated for 6 days by acid red-52 staining based assay
Description for in vitro: Cytotoxicity in human MCF7 cells assessed as maximum drug level not causing reduction in cell viability incubated for 6 days by acid red-52 staining based assay

In the data set “in vitro” (MCF7 cells), `FC(F)(F)c1ccc2nc3cc4ccccc4cc3c(-c3ccccc3)c2c1` displayed an MNTC at 144 h greater than 10 µM.

As to `Cl.Oc1ccc2c(-c3ccccc3)c3cc4ccccc4cc3nc2c1`, the inhibition entry at Estrogen receptor beta [1] is “Active”. The IC50 against Estrogen receptor [2] was 294 nM; in [5], “Not Active”; against Estrogen receptor beta [6], 306 nM. For the same molecule, the inhibition entry in data set [3] is “inactive”. This molecule came in with an EC50 on Estrogen receptor [4] of 7400 nM. The MNTC at 144 h in “in vitro” (MCF7 cells) is greater than 1 µM.

For `Cl.Clc1c2ccccc2cc2c(-c3ccccc3)c3ccccc3nc12`, the IC50 in the data set with MCF7 is 9070 nM; at Estrogen receptor [2], 1680 nM; in data set [5], “Not Active”; against Estrogen receptor beta [6], 2520 nM. Besides, the MNTC at 144 h in the data set “in vitro” (MCF7 cells) was greater than 10 µM.

Turning to `COc1cccc2c(-c3ccccc3)c3cc4ccccc4cc3nc12`, the MNTC at 144 h in the data set “in vitro” (MCF7 cells) is greater than 10 µM.

In the case of `COc1ccc2cc3nc4ccccc4c(-c4ccccc4)c3cc2c1`, the MNTC at 144 h in “in vitro” (MCF7 cells) was greater than 10 µM.

Regarding `Cl.FC(F)(F)c1cccc2c(-c3ccccc3)c3cc4ccccc4cc3nc12`, the concentration for half-maximal inhibition (IC50) is 3980 nM in the data set with MCF7, “Not Active” against Estrogen receptor beta [7], 2650 nM against Estrogen receptor [2] and “Not Active” in data set [5]. In “in vitro” (MCF7 cells), this molecule returned an MNTC at 144 h greater than 10 µM.

In turn, `COc1ccc2c(-c3ccccc3)c3cc4ccccc4cc3nc2c1` had an MNTC at 144 h in the data set “in vitro” (MCF7 cells) greater than 1 µM.

Take `Cl.Oc1cccc2c(-c3ccccc3)c3cc4ccccc4cc3nc12`: the IC50 is 1080 nM against Estrogen receptor [2], “Not Active” in data set [5] and 939 nM at Estrogen receptor beta [6]. For the same molecule, the inhibition result in data set [3] is “inactive”. The response at Estrogen receptor [4] was half-maximal at 1330 nM (EC50). The molecule also registered an MNTC at 144 h in the data set “in vitro” (MCF7 cells) greater than 10 µM.

On to `Cl.Oc1ccc2cc3nc4ccccc4c(-c4ccccc4)c3cc2c1`, for which, on Estrogen receptor beta [1], the inhibition entry was “Active”. Besides, the fold change (FC) on Estrogen receptor beta [8] worked out at 6. Moreover, the IC50 against Estrogen receptor [2] was 169 nM; in data set [5], “Not Active”; at Estrogen receptor beta [6], 154 nM. The inhibition result in data set [3] is “inactive”. A half-maximal response at Estrogen receptor [4] (EC50) required 1440 nM. The same molecule had an MNTC at 144 h in the data set “in vitro” (MCF7 cells) greater than 10 µM.

On to `c1ccc2nc3ccccc3cc2c1`, for which the MNTC at 144 h in the data set “in vitro” (MCF7 cells) was greater than 10 µM.

For `Cl.c1ccc(-c2c3ccccc3nc3cc4ccccc4cc23)cc1`, the IC50 in the data set on MCF7 is 4950 nM; on Estrogen receptor [9], 9390 nM; against Estrogen receptor [2], 915 nM; in [5], “Not Active”; at Estrogen receptor beta [6], 1690 nM. The same molecule registered an MNTC at 144 h in the data set “in vitro” (MCF7 cells) greater than 10 µM.

Turning to `FC(F)(F)c1ccc(-c2c3ccccc3nc3cc4ccc(C(F)(F)F)cc4cc23)cc1`, in the data set on MCF7, the IC50 was determined as 9240 nM. Besides, in the data set “in vitro” (MCF7 cells), the MNTC at 144 h is greater than 10 µM.

Take `COc1ccc2c(-c3ccc(C(F)(F)F)cc3)c3cc4cc(C(F)(F)F)ccc4cc3nc2c1`: the MNTC at 144 h in “in vitro” (MCF7 cells) was greater than 10 µM.

Molecule `FC(F)(F)c1ccc(-c2c3ccc(C(F)(F)F)cc3nc3cc4ccc(C(F)(F)F)cc4cc23)cc1` had an MNTC at 144 h in “in vitro” (MCF7 cells) greater than 1 µM.

`c1ccc(-c2c3ccccc3nc3ccccc23)cc1` registered an MNTC at 144 h in “in vitro” (MCF7 cells) greater than 100 µM.

For `Cl.Clc1ccc2c(-c3ccccc3)c3cc4ccccc4cc3nc2c1`, the IC50 in the data set with MCF7 was 19600 nM; at Estrogen receptor [2], 1650 nM; in data set [5] it was “Not Active”; against Estrogen receptor beta [6], 1980 nM. The molecule further displayed an MNTC at 144 h in “in vitro” (MCF7 cells) greater than 100 µM.

As to `Cl.FC(F)(F)c1ccc2cc3nc4ccccc4c(-c4ccccc4)c3cc2c1`, the IC50 with MCF7 is 9240 nM; at Estrogen receptor [9], 5340 nM; against Estrogen receptor beta [7], “Not Active”; against Estrogen receptor [2] it was 3510 nM; in data set [5], “Not Active”. The MNTC at 144 h in the data set “in vitro” (MCF7 cells) is greater than 10 µM.

With `c1ccc(-c2c3ccccc3nc3nc4ccccc4cc23)cc1`, half-maximal inhibition with MCF7 (IC50) required 951 nM.

In the case of `N#Cc1c2ccccc2cc2c(-c3ccccc3)c3ccccc3nc12`, the MNTC at 144 h in “in vitro” (MCF7 cells) is greater than 100 µM.

In the data set “in vitro” (mcf7), `CC/C(=C(\c1ccccc1)c1ccc(OCCN(C)C)cc1)c1ccccc1` [TAMOXIFEN CITRATE] showed an MNTC at 144 h greater than 10 µM.

By IC50 is commonly meant the point on the concentration scale where inhibition reaches its midpoint. High values mean weaker potency, low ones greater potency. As a reminder, the EC50 is the midpoint of the concentration-response curve.
